Test results published in patent publication US11207369B2, “Compositions and methods for modulating ciliogenesis” (UNIVERSITY OF PITTSBURGH-OF THE COMMONWEALTH SYSTEM OF …, priority 2017, dated 2021).
“Also recorded” adds a separate entry of the source.

Columns and labels:
[1] = test system: Hes1, Hes5, Hey1, Notch1, Psen1, Hif1α, nNOS, iNOS, eNOS; assay: qPCR of gene expression in mouse tracheal epithelial cells during ciliogenesis; type: cell-based; conditions: 2 nM DAPT vs untreated, varying time points in suspension culture, most prominently day 5
Description: FIGS. 7(A-I) are graphs showing quantitative […] (qPCR) of gene expression in mouse tracheal epithelial cells during ciliogenesis. Cells were grown to confluence in stationary culture, treated with collagenase, then placed into suspension culture having 0 nM or 2 nM DAPT, which marked the “baseline” time point. At the indicated times, qPCR experiments were performed to detect gene expression of Hes1 (FIG. 7A), Hes5 (FIG. 7B), Hey1 (FIG. 7C), Psen1 (FIG. 7D), Hif1α (FIG. 7E), Notch1 (FIG. 7F), nNOS (FIG. 7G), iNOS (FIG. 7H), and eNOS (FIG. 7I).
Indeed, expression of multiple genes such as Hes1, Hes5, Hey1, Notch1, Psen1, Hif1α, nNOS, iNOS, and eNOS was altered at varying time points during ciliogenesis in suspension culture containing 2 nM DAPT, as compared to untreated (no DAPT) controls (FIGS. 7A-[…]). […] This effect was most marked for the three isoforms of nitric oxide synthase (NOS).

[2] = test system: mouse tracheal epithelial cells; assay: Ex vivo reciliation of mouse tracheal epithelial cells in suspension culture (video-microscopy); type: cell-based
Text: All animal protocols were approved by the University of Pittsburgh Animal Care and Use Committee. Wild-type, C57B6, adult mice (6-8 weeks of age) were euthanized with inhalational CO2, anterior neck regions were washed with 70% ethanol, and a transverse incision was made across the neck at the mid-cervical level. […] The trachea was gently dissected from the underlying adherent esophagus and connective tissue, pulled out and transected proximally first from the larynx and then distally as far down as possible, close to the carina, and placed in a petri dish containing about 10 ml Leibovitz-15 solution (Gibco; 21083). Isolated tracheas were cleaned of adherent muscle tissue, blood vessels and fat under a dissecting microscope, then incised, splaying the trachea length-wise.
Twelve ml of Leibovitz-15 solution were placed in a 15 ml falcon tube, and 6 cleaned, incised tracheas were added to each tube. Pronase (Protease from Streptomyces griseus, Sigma, P5147) was added to a final concentration of 1.5 mg/ml (Stock solution, 150 mg/ml, 100×) and placed in 4° C. overnight with gentle shaking. After incubation, Pronase was neutralized with addition of fetal bovine serum to a final concentration of 10% (1.2 ml/tube). Tracheas and denuded epithelial cells were centrifuged at 1200 rpms for 6 minutes. Supernatant was aspirated, and trachea/cells were re-suspended in 12 ml Stationary media (500 ml DMEM/F12, 10 ml of Ultroser G, and 10 ml of 100× Antibiotics-Antimycotic). The cells/tracheas were pipetted up and down vigorously 12-20 times, and vortexed to re-suspend pelleted tracheas if necessary. Trachea/cells were centrifuged again, supernatants were aspirated, pellets were re-suspended in 6 ml of stationary medium, and then everything was transferred to a Primaria plate (Corning, 353803) or a regular cell culture plate (Corning, 353003), and incubated at 37° C./5% CO2 for 6 hours. This was performed to plate out fibroblasts, thereby minimizing contamination of tracheal epithelial cells with fibroblasts. After incubation, non-adherent cells were collected by lightly washing the plates with stationary media present in the plates. Cells were pelleted, supernatant aspirated, cells re-suspended in 12 ml of stationary medium and added to a 6-well plate (2 ml/well) coated with rat tail collagen.
Tracheal epithelial cells were obtained from mice and processed for stationary culture as detailed above. The tracheal epithelial cells were placed onto rat-tail collagen coated wells and then incubated at 37° C./5% CO2 for 36-48 hrs. Over the course of about 48 hours, the cells seeded onto the collagen lost their cilia and underwent proliferative growth, expanding in numbers. […]

airway epithelial cells = assay: Inhalational administration to subjects with COPD, video-microscopy of airway epithelial cells; type: in vivo, human; conditions: approx. 1 mg/kg inhaled once per day for seven days
Description: Ten subjects are diagnosed with Chronic Obstructive Pulmonary Disease (COPD). Each subject provides informed consent regarding providing epithelial cell samples and to receiving a blinded treatment of either DAPT or a control placebo. […] The epithelial cells are placed into suitable medium such as Leibovitz-15 medium. Thereafter, cell samples are evaluated for percentage ciliation, cilia length, and/or cilia beat frequency by video-microscopy, and the results are recorded. Video-microscopy confirms each subject has epithelial cells which are reduced in cilia number, cilia length, and/or cilia beat frequency compared to averages or standards present in the medical literature.
DAPT is inhalationally administered to five of the subjects via a nebulizer or an inhaler (hereinafter, “DAPT-treated subjects”). […]
(§1) The epithelial cells are placed into suitable medium such as Leibovitz-15 medium. Thereafter, cell samples are evaluated for percentage ciliation, cilia length, and/or cilia beat frequency by video-microscopy, and the results are recorded. Video-microscopy confirms each of the five DAPT-treated subjects has epithelial cells which are increased in cilia number, cilia length, and/or cilia beat frequency as compared to both 1) the epithelial cells of placebo-treated subjects, and 2) the pre-treatment measurements recorded for epithelial cells of each respective DAPT-treated subject. […]

ependymal cells = assay: Intrathecal administration to subjects with hydrocephalus, video-microscopy of ependymal cells; type: in vivo, human; conditions: approx. 1 mg/kg intrathecal once
Description: Ten subjects are diagnosed with hydrocephalus. Each subject provides informed consent regarding providing epithelial cell samples and to receiving a blinded treatment of either DAPT or a control placebo. Intrathecal biopsy is used to obtain ependymal cells from the cerebrospinal fluid of each subject. The ependymal cells are placed into suitable medium such as Leibovitz-15 medium. Thereafter, cell samples are evaluated for percentage ciliation, cilia length, and/or cilia beat frequency by video-microscopy, and the results are recorded. Video-microscopy confirms each subject has ependymal cells which are reduced in cilia number, cilia length, and/or cilia beat frequency compared to averages or standards present in the medical literature. […]
as §1, with “On day eight post-injection, ependymal” for “The epithelial”, “obtained from the cerebrospinal fluid of each subject by intrathecal biopsy. […]” for “placed into suitable medium such as Leibovitz-15 medium.”, “ependymal” for “epithelial”

[3] = test system: human nasal epithelial cells; assay: Ex vivo reciliation of human nasal epithelial cells in suspension culture (video-microscopy); type: cell-based; conditions: 2 nM DAPT vs regular media
Description: Cells were immediately placed into 5 ml Leibovitz-15 medium prior to processing for stationary culture.
These cells were spun down, the supernatant was aspirated, cells were resuspended in 6 ml of stationary medium, and then plated onto 3 wells of a 6-well rat tail collagen coated plate. The media was changed 48-72 hours post plating and fed every 2 days until confluence was reached. Following confluence, the treatment of mouse tracheal epithelial cells and human nasal epithelial cells was identical e.g., placement into suspension culture, video microscopy, etc. siRNA knockdown was only performed in mouse tracheal tissue due to the paucity of human nasal epithelial cells.
Once confluence was reached, typically occurring between about 7 to 10 days, the stationary media was aspirated, and collagen was digested with 1 ml of Collagenase 4 (200 IU/ml, Worthington, LS004210) for 75-90 mins at 37° C./5% CO2. After incubation, collagenase was neutralized using 2 ml of Suspension media (500 ml DMEN/F12, 50 ml NuSerum, 10 ml 100× Antibiotics-Antimycotic). Cells adherent to the bottom of the plate were gently scrapped off with a cell scraper (Fisherbrand, 08-100-241). […]
Reciliation was observed by about days 7 to 9 with high-speed video-microscopy (200 fps) with a 60× oil-immersion lens (FIG. 2A). […] The outlined total surface and ciliated surface alone was quantified. Extent of ciliation was calculated by dividing the length of ciliated surface by the length of the entire surface available for ciliation, and converted to a percentage.
To measure cilia length in reciliated nasal tissue, each recording was processed with a custom script written for Fiji, an open-source image analysis software (Schindelin, et al., Nat. Methods, 2012, 9:676-682). This script used the Temporal Median filter to segment patches of cilia based on movement, and the Thickness tool in the BoneJ analysis toolkit (Doube, et al., Bone, 2010, 47:1076-1079) measured average cilia length. Ciliary beat frequency was measured in cilia beats per second (Hertz).] […]

[4] = 2 nM DAPT vs untreated, 8 days suspension culture
[5] = day eight, vs placebo and pre-treatment
[6] = 12 subjects with congenital heart defects

C[C@H](NC(=O)Cc1cc(F)cc(F)c1)C(=O)N[C@H](C(=O)OC(C)(C)C)c1ccccc1 [DAPT, N—[N-(3,5-Difluorophenacetyl)-L-alanyl]-S-phenylglycine t-butyl ester]
expression of Hes1, Hes5, Hey1, Notch1, Psen1, Hif1α, nNOS, iNOS and eNOS [1]: altered
cilia beat frequency [2, 4]: significantly increased
cilia length [2, 4]: significantly increased
increased ciliogenesis over baseline (percent ciliation) ([2]; 2 nM DAPT, 8 days suspension culture): ~3 fold
toxicity to cells (cell death, very few if any ciliated cells) ([2]; 2 μM DAPT or more, DMSO volume constant): toxic to cells
cilia number, cilia length, and/or cilia beat frequency of epithelial cells (airway epithelial cells; [5]): increased
symptoms of COPD (e.g., coughing) (airway epithelial cells; some subjects): ameliorated
cilia number, cilia length, and/or cilia beat frequency of ependymal cells (ependymal cells; [5]): increased
symptoms of hydrocephalus (e.g., headache) (ependymal cells; some subjects): ameliorated
percentage reciliation (percent ciliation) ([3]; 12 paired samples from subjects with congenital heart defects): significantly greater; also recorded: significant increases
cilia beat frequency [3, 6]: significantly increased; also recorded: significant increases
cilia length [3, 6]: significantly increased; also recorded: significant increases
